The values that follow come from patent US12637425B2, “Compounds and formulations for treating ophthalmic diseases” (Visus Therapeutics, Inc., priority 2020, dated 2026).

For the experiment, the target named is T1, Recombinant cryAB(R120G) protein (Homo sapiens, UniProt P02511, R120G).
T1 sequence (P02511 1-175 R120G): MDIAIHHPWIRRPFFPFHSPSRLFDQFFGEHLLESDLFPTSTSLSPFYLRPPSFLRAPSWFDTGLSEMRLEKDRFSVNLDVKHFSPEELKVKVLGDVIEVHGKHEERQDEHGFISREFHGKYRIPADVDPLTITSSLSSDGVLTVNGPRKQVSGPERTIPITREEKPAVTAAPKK
In words: Kinetic turbidity aggregation assay of recombinant cryAB(R120G). Type of experiment: biochemical. The conditions noted are these: for inhibition at 25 µM / % Inhibition of Protein Aggregation, 25 μM cmpd: 25 μM compound; for inhibition at 25 µM / inhibition at 100 µM / inhibition at 400 µM / % Inhibition of Protein Aggregation, 25 μM cmpd: 15 μM cryAB(R120G), 42° C., absorbance at 550 nm; for inhibition at 25 µM: read-out: % Inhibition of Protein Aggregation, 25 μM cmpd; for inhibition at 100 µM: 100 μM compound, read-out: % Inhibition of Protein Aggregation, 100 μM cmpd; for inhibition at 400 µM: 400 μM compound, read-out: % Inhibition of Protein Aggregation, 400 μM cmpd; for IC50: inhibition of cryAB(R120G) protein aggregation. On the procedure: Example A-1: Kinetic Turbidity Aggregation Assay of Recombinant cryAB(R120)
Recombinant cryAB(R120G) protein was diluted to 100 μM in assay buffer (50 mM Tris, 100 mM NaCl, 5 mM DTT, 0.01% Triton X-100, 0.05% PEG-8000). Compounds were dissolved in DMSO at 10 mM then typically diluted to 2.5 mM in DMSO and serially diluted 2-fold as necessary. To a 384-well black microplate in quadruplicate was added 81 μL assay buffer, followed by 15 μL protein solution, and 4 μL compound to give a final concentration of 15 μM cryAB(R120G) protein in 4% DMSO. […] N.D. is not determined.

The inhibition is the relative decrease from the control value, in per cent. For `Cn1nc([C@H](CNS(=O)(=O)c2ccc3cc[nH]c3c2)N2CCC2)c2ccccc21` [Compound 99, (S)-N-(2-(azetidin-1-yl)-2-(1-methyl-1H-indazol-3-yl)ethyl)-1H-indole-6-sulfonamide], the inhibition at 25 µM was -56% and the inhibition at 100 µM is 21.3%.
In general, IC50 refers to the concentration that gives 50% inhibition. For `Cn1cc(C(CNS(=O)(=O)c2ccc3cc[nH]c3c2)N2CCCC2)c2ccccc21` (stereo not shown) [Compound 5, N-(2-(1-methyl-1H-indol-3-yl)-2-(pyrrolidin-1-yl)ethyl)-1H-indole-6-sulfonamide], the inhibition at 25 µM was found to be 99.6%, the inhibition at 100 µM was 99.8%, the inhibition at 400 µM came to 97.9% and the IC50 was at most 10 µM.
For `Cc1cccc2c(C(CNS(=O)(=O)c3ccc4cc[nH]c4c3)N(C)C)cn(C)c12` (stereo not shown) [Compound 73, N-(2-(1,7-dimethyl-1H-indol-3-yl)-2-(dimethylamino)ethyl)-1H-indole-6-sulfonamide], the inhibition at 25 µM worked out at 57% and the inhibition at 100 µM was found to be 99.5%.
On to `CN(C)C(CNS(=O)(=O)c1ccc2ncsc2c1)c1cn(C)c2ccccc12` (stereo not shown) [Compound 11, N-(2-(dimethylamino)-2-(1-methyl-1H-indol-3-yl)ethyl)benzo[d]thiazole-6-sulfonamide], for which the inhibition at 25 µM is -6%, the inhibition at 100 µM is -20% and the inhibition at 400 µM stood at 20.5%.
As to `Cn1cc(C(CNS(=O)(=O)c2ccc3cc[nH]c3c2)N2CC[C@H](O)C2)c2ccccc21` (stereo partly drawn) [Compound 43, N-(2-((S)-3-hydroxypyrrolidin-1-yl)-2-(1-methyl-1H-indol-3-yl)ethyl)-1H-indole-6-sulfonamide], the inhibition at 25 µM came to 20% and the inhibition at 100 µM stood at 98.6%.
As to `Cn1cc([C@H](CNS(=O)(=O)c2ccc3cc[nH]c3c2)N2CC[C@H](c3ccccc3)C2)c2ccccc21` [Compound 61, N-((R)-2-(1-methyl-1H-indol-3-yl)-2-((R)-3-phenylpyrrolidin-1-yl)ethyl)-1H-indole-6-sulfonamide], the inhibition at 25 µM was determined as 1% and the inhibition at 100 µM amounted to 66.7%.
Take `CN1CCN(C(CNS(=O)(=O)c2ccc3cc[nH]c3c2)c2cn(C)c3ccccc23)CC1` (stereo not shown) [Compound 39, N-(2-(1-methyl-1H-indol-3-yl)-2-(4-methylpiperazin-1-yl)ethyl)-1H-indole-6-sulfonamide]: the inhibition at 25 µM amounted to 18% and the inhibition at 100 µM was found to be 82.5%.
Turning to `Cn1cc(C(CNS(=O)(=O)c2ccc3cc[nH]c3c2)N2CCOCC2)c2ccccc21` (stereo not shown) [Compound 30, N-(2-(1-methyl-1H-indol-3-yl)-2-morpholinoethyl)-1H-indole-6-sulfonamide], the inhibition at 25 µM is -28% and the inhibition at 100 µM is 82%.
Turning to `COc1ccc2[nH]ccc2c1S(=O)(=O)NCC(c1cn(C)c2ccccc12)N(C)C` (stereo not shown) [Compound 97, N-(2-(dimethylamino)-2-(1-methyl-1H-indol-3-yl)ethyl)-5-methoxy-1H-indole-4-sulfonamide], the inhibition at 25 µM was -45% and the inhibition at 100 µM amounted to 58.8%.
Consider `Cn1cc(C(CNS(=O)(=O)c2cccc3[nH]ccc23)N2CCCC2)c2ccccc21` (stereo not shown) [Compound 27, N-(2-(1-methyl-1H-indol-3-yl)-2-(pyrrolidin-1-yl)ethyl)-1H-indole-4-sulfonamide], for which the “% Inhibition of Protein Aggregation, 25 μM cmpd” value is −35% and the inhibition at 100 µM was determined as 85%.
`CC(C)n1cc(C(CNS(=O)(=O)c2ccc3[nH]ccc3c2)N(C)C)c2ccccc21` (stereo not shown) [Compound 12, N-(2-(dimethylamino)-2-(1-isopropyl-1H-indol-3-yl)ethyl)-1H-indole-5-sulfonamide]: the inhibition at 25 µM worked out at 30%, the inhibition at 100 µM was 87.1% and the inhibition at 400 µM is 96.1%.
As for `Cn1cc(C(CNS(=O)(=O)c2ccc3cc[nH]c3c2)N2CCC(C)(C)C2)c2ccccc21` (stereo not shown) [Compound 52, N-(2-(3,3-dimethylpyrrolidin-1-yl)-2-(1-methyl-1H-indol-3-yl)ethyl)-1H-indole-6-sulfonamide], the inhibition at 25 µM is 62% and the inhibition at 100 µM came out at 96.2%.
`Cn1nc([C@@H](CNS(=O)(=O)c2ccc3cc[nH]c3c2)N2CCC2)c2ccccc21` [Compound 98, (R)-N-(2-(azetidin-1-yl)-2-(1-methyl-1H-indazol-3-yl)ethyl)-1H-indole-6-sulfonamide]: the inhibition at 25 µM was 92.9% and the inhibition at 100 µM is 99.1%.
Regarding `CN(C)C(CNS(=O)(=O)c1ccc2cc[nH]c2c1)c1cn(Cc2cncs2)c2ccccc12` (stereo not shown) [Compound 69, N-(2-(dimethylamino)-2-(1-(thiazol-5-ylmethyl)-1H-indol-3-yl)ethyl)-1H-indole-6-sulfonamide], the inhibition at 25 µM was determined as 58% and the inhibition at 100 µM came out at 100%.
The corresponding values for `CC1CN(C(CNS(=O)(=O)c2ccc3cc[nH]c3c2)c2cn(C)c3ccccc23)C1` (stereo not shown) [Compound 103, N-(2-(1-methyl-1H-indol-3-yl)-2-(3-methylazetidin-1-yl)ethyl)-1H-indole-6-sulfonamide] are 59% and 99.7%.
For the compound `CN(C)C(CNS(=O)(=O)c1ccc2cc[nH]c2c1)c1ccc2[nH]ncc2c1` (stereo not shown) [Compound 3, N-(2-(dimethylamino)-2-(1H-indazol-5-yl)ethyl)-1H-indole-6-sulfonamide], the inhibition at 25 µM came out at 58%, the inhibition at 100 µM amounted to 83.7% and the inhibition at 400 µM turned out to be 99.1%.
On to `C[C@@H]1CCN([C@H](CNS(=O)(=O)c2ccc3cc[nH]c3c2)c2cn(C)c3ccccc23)C1` [Compound 76, N-((S)-2-(1-methyl-1H-indol-3-yl)-2-((R)-3-methylpyrrolidin-1-yl)ethyl)-1H-indole-6-sulfonamide], for which the inhibition at 25 µM worked out at 28% and the inhibition at 100 µM was 85.1%.
Regarding `CC(C)n1cc(C(CNS(=O)(=O)c2ccc3cc[nH]c3c2)N(C)C)c2ccccc21` (stereo not shown) [Compound 23, N-(2-(dimethylamino)-2-(1-isopropyl-1H-indol-3-yl)ethyl)-1H-indole-6-sulfonamide], the “% Inhibition of Protein Aggregation, 25 μM cmpd” value is listed as 61%; the inhibition at 100 µM is 99%; the inhibition at 400 µM stood at 100%; the IC50 lay within 10 to 50 µM.
With `Cn1cc([C@H](CNS(=O)(=O)c2ccc3cc[nH]c3c2)N2CCCC2)c2ccncc21` [Compound 83, (R)-N-(2-(1-methyl-1H-pyrrolo[2,3-c]pyridin-3-yl)-2-(pyrrolidin-1-yl)ethyl)-1H-indole-6-sulfonamide], the inhibition at 25 µM was 1% and the inhibition at 100 µM came to 26%.
Consider `Cn1cc(C(CNS(=O)(=O)c2ccc3cc[nH]c3c2)N2CC[C@H](F)C2)c2ccccc21` (stereo partly drawn) [Compound 36, N-(2-((S)-3-fluoropyrrolidin-1-yl)-2-(1-methyl-1H-indol-3-yl)ethyl)-1H-indole-6-sulfonamide], for which the inhibition at 25 µM came out at 99.7%, the inhibition at 100 µM worked out at 83.9% and the IC50 is at most 10 µM.
On to `CN(Cc1cncs1)[C@@H](CNS(=O)(=O)c1ccc2cc[nH]c2c1)c1cn(C)c2ccccc12` [Compound 87, (R)-N-(2-(methyl(thiazol-5-ylmethyl)amino)-2-(1-methyl-1H-indol-3-yl)ethyl)-1H-indole-6-sulfonamide], for which the inhibition at 25 µM worked out at 47% and the inhibition at 100 µM stood at 83.2%.
Consider `Cn1cc([C@H](CNS(=O)(=O)c2ccc3cc[nH]c3c2)N2CCCC2)c2cnccc21` [Compound 81, (R)-N-(2-(1-methyl-1H-pyrrolo[3,2-c]pyridin-3-yl)-2-(pyrrolidin-1-yl)ethyl)-1H-indole-6-sulfonamide], for which the inhibition at 25 µM is -12% and the inhibition at 100 µM came out at 23%.
Regarding `Cn1cc([C@@H](CNS(=O)(=O)c2ccc3cc[nH]c3c2)N2CCCC2)c2ccncc21` [Compound 82, (S)-N-(2-(1-methyl-1H-pyrrolo[2,3-c]pyridin-3-yl)-2-(pyrrolidin-1-yl)ethyl)-1H-indole-6-sulfonamide], the inhibition at 25 µM was 16% and the inhibition at 100 µM was 38%.
Consider `Cc1ccc2c(C(CNS(=O)(=O)c3ccc4cc[nH]c4c3)N(C)C)cn(C)c2c1` (stereo not shown) [Compound 100, N-(2-(1,6-dimethyl-1H-indol-3-yl)-2-(dimethylamino)ethyl)-1H-indole-6-sulfonamide], for which the inhibition at 25 µM is 61.7% and the inhibition at 100 µM stood at 99.9%.
For `Cc1ccc2c(c1)c(C(CNS(=O)(=O)c1ccc3cc[nH]c3c1)N(C)C)cn2C` (stereo not shown) [Compound 21, N-(2-(1,5-dimethyl-1H-indol-3-yl)-2-(dimethylamino)ethyl)-1H-indole-6-sulfonamide], the inhibition at 25 µM is 76%, the inhibition at 100 µM turned out to be 99.8% and the inhibition at 400 µM was 90.7%.
Regarding `Cn1cc(C(CNS(=O)(=O)c2ccc3cc[nH]c3c2)Nc2ccccc2)c2ccccc21` (stereo not shown) [Compound 51, N-(2-(1-methyl-1H-indol-3-yl)-2-(phenylamino)ethyl)-1H-indole-6-sulfonamide], the inhibition at 25 µM stood at 46% and the inhibition at 100 µM came out at 80.4%.
